Here are results for 20 molecules from patent US8946413B2 (Pfizer Inc., priority 2008, dated 2015).

The target in this assay is T1, CCR2 (Homo sapiens, UniProt P41597).
T1 construct: (leukophoresis pack); host or cells: human peripheral blood mononuclear cells (PBMCs) from a normal human leukophoresis pack
The experiment in a line: hCCR2 (125-I hMCP-1) small molecule binding assay on human PBMCs. The following applies: 125I-MCP-1, human PBMCs. The method in brief: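 Ficoll-isolated human PBMCs pre-incubated 30 min or 1 h with compound at 0.333 μM final (0.67% DMSO), then incubated 30 min at room temperature with 150 pM 125I-hMCP-1 in RPMI/0.1% BSA/20 mM HEPES. Filter-bound radioactivity counted by gamma counter. 100% inhibition defined with 1 μM hMCP-1; IC50 plates run n=2.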

Setting [1] is: 30 min preincubation, read-out: IC50 (nM) 30 min preinc.
Where [2] appears, read: 1 hr preincubation, read-out: IC50 (nM) 1 hr preinc.

In general, IC50 refers to the point on the concentration scale where inhibition reaches its midpoint.

Where two headings read alike, the source gives them in different places.

T1 sequence (P41597 whole entry): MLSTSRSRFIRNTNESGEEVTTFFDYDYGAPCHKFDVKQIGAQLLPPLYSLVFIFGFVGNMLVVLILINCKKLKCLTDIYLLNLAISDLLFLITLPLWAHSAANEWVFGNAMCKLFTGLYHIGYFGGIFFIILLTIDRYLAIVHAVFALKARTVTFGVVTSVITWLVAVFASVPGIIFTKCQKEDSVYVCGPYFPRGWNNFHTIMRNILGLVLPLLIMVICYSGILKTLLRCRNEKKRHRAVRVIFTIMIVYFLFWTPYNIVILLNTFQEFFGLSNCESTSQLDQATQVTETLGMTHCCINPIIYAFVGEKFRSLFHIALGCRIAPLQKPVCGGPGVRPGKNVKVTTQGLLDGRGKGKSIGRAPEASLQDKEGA

On to `CO[C@@H]1COCC[C@@H]1N[C@@H]1CC[C@](CC(F)(F)F)(C(=O)N2C[C@@H]3C[C@H]2CN3c2cc(C(F)(F)F)cnn2)C1` [Example 39, 1,5-anhydro-2,3-dideoxy-4-O-methyl-3-{[(1R,3S)-3-(2,2,2-trifluoroethyl)-3-({(1S,4S)-5-[5-(trifluoromethyl)pyridazin-3-yl]-2,5-diazabicyclo[2.2.1]hept-2-yl}carbonyl)cyclopentyl]amino}-D-erythro-pentitol], for which the IC50 runs as follows: under setting [1], 82.9 nM; under setting [2], 5.81 nM. Turning to `CO[C@@H]1COCC[C@@H]1N[C@@H]1C=C[C@@](C(=O)N2C[C@@H]3C[C@H]2CN3c2cc(C(F)(F)F)ccn2)(C(C)C)C1` [Example 40, 1,5-anhydro-2,3-dideoxy-3-{[(1S,4S)-4-isopropyll-4-({(1S,4S)-5-[4-(trifluoromethyl)pyridin-2-yl]-2,5-diazabicyclo[2.2.1]hept-2-yl}carbonyl)cyclopent-2-en-1-yl]amino}-4-O-methyl-D-erythro-pentitol], under setting [1], the IC50 came to 18.3 nM. Regarding `CO[C@@H]1COCC[C@@H]1N[C@@H]1C=C[C@@](C(=O)N2C[C@@H]3C[C@H]2CN3c2nccc(C(F)(F)F)n2)(C(C)C)C1` [Example 41, 1,5-anhydro-2,3-dideoxy-3-{[(1S,4S)-4-isopropyll-4-({(1S,4S)-5-[4-(trifluoromethyl)pyrimidin-2-yl]-2,5-diazabicyclo[2.2.1]hept-2-yl}carbonyl)cyclopent-2-en-1-yl]amino}-4-O-methyl-D-erythro-pentitol], the IC50 under setting [1] worked out at 63.6 nM.

As for `CO[C@@H]1COCC[C@@H]1N[C@@H]1C=C[C@@](C(=O)N2C[C@@H]3C[C@H]2CN3c2cccc(C(F)(F)F)n2)(C(C)C)C1` [Example 42, 1,5-anhydro-2,3-dideoxy-3-{[(1S,4S)-4-isopropyll-4-({(1S,4S)-5-[6-(trifluoromethyl)pyridin-2-yl]-2,5-diazabicyclo[2.2.1]hept-2-yl}carbonyl)cyclopent-2-en-1-yl]amino}-4-O-methyl-D-erythro-pentitol], the IC50 under setting [1] is 70.9 nM. Regarding `CO[C@@H]1COCC[C@@H]1N[C@@H]1C=C[C@@](C(=O)N2C[C@@H]3C[C@H]2CN3c2cncc(C(F)(F)F)n2)(C(C)C)C1` [Example 43, 1,5-anhydro-2,3-dideoxy-3-{[(1S,4S)-4-isopropyll-4-({(1S,4S)-5-[6-(trifluoromethyl)pyrazin-2-yl]-2,5-diazabicyclo[2.2.1]hept-2-yl}carbonyl)cyclopent-2-en-1-yl]amino}-4-O-methyl-D-erythro-pentitol], the IC50 under setting [1] was 47.3 nM.

Consider `CO[C@@H]1COCC[C@@H]1N[C@@H]1CC[C@](CC(F)(F)F)(C(=O)N2C[C@@H]3C[C@H]2CN3C(=O)OC(C)(C)C)C1` [Example 44, 1,5-anhydro-3-{[(1R,3S)-3-{[(1S,4S)-5-(tert-butoxycarbonyl)-2,5-diazabicyclo[2.2.1]hept-2-yl]carbonyl}-3-(2,2,2-trifluoroethyl)cyclopentyl]amino}-2,3-dideoxy-4-O-methyl-D-erythro-pentitol], for which the IC50 under setting [2] stood at 8.1 nM. For `CO[C@@H]1COCC[C@@H]1N[C@@H]1CC[C@@](C(=O)N2C[C@@H]3C[C@H]2CN3c2cccc(C(F)(F)F)n2)(C2(O)CCC2)C1` [Example 45, 1,5-anhydro-2,3-dideoxy-3-{[(1R,3S)-3-(1-hydroxycyclobutyl)-3-({(1S,4S)-5-[6-(trifluoromethyl)pyridin-2-yl]-2,5-diazabicyclo[2.2.1]hept-2-yl}carbonyl)cyclopentyl]amino}-4-O-methyl-D-erythro-pentitol], the concentration for half-maximal inhibition (IC50) under setting [1] stood at 25.3 nM.

As for `CO[C@@H]1COCC[C@@H]1N[C@@H]1CC[C@@](C(=O)N2C[C@@H]3C[C@H]2CN3c2cc(C(F)(F)F)ccn2)(C2(O)CCC2)C1` [Example 46, 1,5-anhydro-2,3-dideoxy-3-{[(1R,3S)-3-(1-hydroxycyclobutyl)-3-({(1S,4S)-5-[4-(trifluoromethyl)pyridin-2-yl]-2,5-diazabicyclo[2.2.1]hept-2-yl}carbonyl)cyclopentyl]amino}-4-O-methyl-D-erythro-pentitol], the half-maximal inhibitory concentration (IC50) under setting [1] is 3.19 nM. For the molecule `CO[C@@H]1COCC[C@@H]1N[C@@H]1CC[C@@](C(=O)N2C[C@@H]3C[C@H]2CN3c2nccc(C(F)(F)F)n2)(C2(O)CCC2)C1` [Example 47, 1,5-anhydro-2,3-dideoxy-3-{[(1R,3S)-3-(1-hydroxycyclobutyl)-3-({(1S,4S)-5-[4-(trifluoromethyl)pyrimidin-2-yl]-2,5-diazabicyclo[2.2.1]hept-2-yl}carbonyl)cyclopentyl]amino}-4-O-methyl-D-erythro-pentitol], the IC50 under setting [1] is 6.16 nM. Regarding `CO[C@@H]1COCC[C@@H]1N[C@@H]1CC[C@@](C(=O)N2C[C@@H]3C[C@H]2CN3c2ccnc(C(F)(F)F)n2)(C2(O)CCC2)C1` [Example 48, 1,5-anhydro-2,3-dideoxy-3-{[(1R,3S)-3-(1-hydroxycyclobutyl)-3-({(1S,4S)-5-[2-(trifluoromethyl)pyrimidin-4-yl]-2,5-diazabicyclo[2.2.1]hept-2-yl}carbonyl)cyclopentyl]amino}-4-O-methyl-D-erythro-pentitol], the half-inhibitory concentration (IC50) under setting [1] was 25.3 nM.

With `CO[C@@H]1COCC[C@@H]1N[C@@H]1CC[C@@](C(=O)N2C[C@@H]3C[C@H]2CN3c2cc(C(F)(F)F)ncn2)(C2(O)CCC2)C1` [Example 49, 1,5-anhydro-2,3-dideoxy-3-{[(1R,3S)-3-(1-hydroxycyclobutyl)-3-({(1S,4S)-5-[6-(trifluoromethyl)pyrimidin-4-yl]-2,5-diazabicyclo[2.2.1]hept-2-yl}carbonyl)cyclopentyl]amino}-4-O-methyl-D-erythro-pentitol], under setting [1], the half-maximal inhibitory concentration (IC50) worked out at 35.8 nM.

For `CO[C@@H]1COCC[C@@H]1N[C@@H]1CC[C@@](C(=O)N2C[C@@H]3C[C@H]2CN3c2cncc(C(F)(F)F)n2)(C2(O)CCC2)C1` [Example 50, 1,5-anhydro-2,3-dideoxy-3-{[(1R,3S)-3-(1-hydroxycyclobutyl)-3-({(1S,4S)-5-[6-(trifluoromethyl)pyrazin-2-yl]-2,5-diazabicyclo[2.2.1]hept-2-yl}carbonyl)cyclopentyl]amino}-4-O-methyl-D-erythro-pentitol], the half-inhibitory concentration (IC50) under setting [1] turned out to be 7.14 nM.

In the case of `CO[C@@H]1COCC[C@@H]1N[C@@H]1CC[C@@](C(=O)N2C[C@@H]3C[C@H]2CN3c2ccnc(C(F)(F)F)c2)(C2(O)CCC2)C1` [Example 51, 1,5-anhydro-2,3-dideoxy-3-{[(1R,3S)-3-(1-hydroxycyclobutyl)-3-({(1S,4S)-5-[2-(trifluoromethyl)pyridin-4-yl]-2,5-diazabicyclo[2.2.1]hept-2-yl}carbonyl)cyclopentyl]amino}-4-O-methyl-D-erythro-pentitol], under setting [1], the IC50 came to 22.8 nM. Consider `CO[C@@H]1COCC[C@@H]1N[C@@H]1CC[C@@](C(=O)N2C[C@@H]3C[C@H]2CN3c2cc(C(F)(F)F)ccn2)(C(C)(C)O)C1` [Example 52, 1,5-anhydro-2,3-dideoxy-3-{[3-(1-hydroxy-1-methylethyl)-3-({5-[4-(trifluoromethyl)pyridin-2-yl]-2,5-diazabicyclo[2.2.1]hept-2-yl}carbonyl)cyclopentyl]amino}-4-O-methylpentitol], for which the half-maximal inhibitory concentration (IC50) under setting [1] came out at 5.4 nM.

For the molecule `CO[C@@H]1COCC[C@@H]1N[C@@H]1CC[C@@](C(=O)N2C[C@@H]3C[C@H]2CN3c2cc(C(F)(F)F)ncn2)(C(C)(C)O)C1` [Example 53, 1,5-anhydro-2,3-dideoxy-3-{[3-(1-hydroxy-1-methylethyl)-3-({5-[6-(trifluoromethyl)pyrimidin-4-yl]-2,5-diazabicyclo[2.2.1]hept-2-yl}carbonyl)cyclopentyl]amino}-4-O-methylpentitol], under setting [1], the IC50 stood at 27.6 nM. Turning to `CO[C@@H]1COCC[C@@H]1N[C@@H]1CC[C@@](C(=O)N2C[C@@H]3C[C@H]2CN3c2nccc(C(F)(F)F)n2)(C(C)(C)O)C1` [Example 54], the concentration for half-maximal inhibition (IC50) under setting [1] amounted to 8.46 nM. As for `CO[C@@H]1COCC[C@@H]1N[C@@H]1CC[C@@](C(=O)N2C[C@@H]3C[C@H]2CN3c2cc(C(F)(F)F)cnn2)(C(C)(C)O)C1` [Example 55, 1,5-anhydro-2,3-dideoxy-3-{[3-(1-hydroxy-1-methylethyl)-3-({5-[5-(trifluoromethyl)pyridazin-3-yl]-2,5-diazabicyclo[2.2.1]hept-2-yl}carbonyl)cyclopentyl]amino}-4-O-methylpentitol], the IC50 under setting [1] amounted to 28.3 nM. For the molecule `CO[C@@H]1COCC[C@@H]1N[C@@H]1CC[C@@](C(=O)N2C[C@@H]3C[C@H]2CN3c2ccnc(C(F)(F)F)n2)(C(C)(C)O)C1` [Example 56, 1,5-anhydro-2,3-dideoxy-3-{[3-(1-hydroxy-1-methylethyl)-3-({5-[2-(trifluoromethyl)pyrimidin-4-yl]-2,5-diazabicyclo[2.2.1]hept-2-yl}carbonyl)cyclopentyl]amino}-4-O-methylpentitol], under setting [1], the 50% inhibitory concentration (IC50) amounted to 32.8 nM. As to `CO[C@@H]1COCC[C@@H]1N[C@@H]1CC[C@@](C(=O)N2C[C@@H]3C[C@H]2CN3c2cccc(C(F)(F)F)n2)(C(C)(C)O)C1` [Example 57, 1,5-anhydro-2,3-dideoxy-3-{[3-(1-hydroxy-1-methylethyl)-3-({5-[6-(trifluoromethyl)pyridin-2-yl]-2,5-diazabicyclo[2.2.1]hept-2-yl}carbonyl)cyclopentyl]amino}-4-O-methylpentitol], the IC50 under setting [1] stood at 4.34 nM. Take `CO[C@@H]1COCC[C@@H]1N[C@@H]1CC[C@@](C(=O)N2C[C@@H]3C[C@H]2CN3c2ccnc(C(F)(F)F)c2)(C(C)(C)O)C1` [Example 58, 1,5-anhydro-2,3-dideoxy-3-{[3-(1-hydroxy-1-methylethyl)-3-({5-[2-(trifluoromethyl)pyridin-4-yl]-2,5-diazabicyclo[2.2.1]hept-2-yl}carbonyl)cyclopentyl]amino}-4-O-methylpentitol]: the concentration for half-maximal inhibition (IC50) under setting [1] worked out at 38.5 nM.
